# Test results: patent US20220127298A1, “THERMOSPOROTHRIX HAZAKENSIS-DERIVED ANTIBACTERIALLY ACTIVE SUBSTANCE” (KENNAN EISEI KOGYO CO., LTD., priority 2019, published 2022)
# Tests used:
# Format in all cases: cell-based
# [1] = test system: Geobacillus stearothermophilus 111499 MERCK (ATCC 7953); assay: Measurement of minimum inhibitory concentration, dilution method with liquid culture medium; conditions: ATCC7953, LB liquid medium, 60° C., 135 rpm, 18 hours, visual observation and OD600
# Description: (§1) The minimum inhibitory concentration (MIC) is one of the antibiotic susceptibility tests, and means the minimum concentration of an antimicrobial substance at which the visible growth of a microorganism can be inhibited. In the research field, the MIC measurement is used, for example, to compare the effects of a new antibiotic substance and a conventional substance, or to examine actions on several strains, and is regarded as an important criterion for evaluating antibiotic substances. The MIC of “HK-1” which was obtained hereunder as the antibacterial active substance was measured using the dilution method with a liquid culture medium.
# (§2) A piece of ice out of a glycerol stock of G. stearothermophilus stored at −80° C. was planarly inoculated on the LB agar culture medium with a toothpick. This was incubated at 60° C. for 18 hours. One (1) cm^2 of the culture medium was excavated with a toothpick, placed into a long test tube containing 10 mL of a liquid LB culture medium, and subjected to a shaking culture at 60° C., and 300 rpm, for 18 hours. The culture solution was diluted with sterile water to about McF standard No. 1.
# Two (2) mg of HK-1 was weighed out into a 2 mL Eppendorf tube using an electric balance. To this Eppendorf tube, 2 mL of methanol was added to dissolve the HK-1 to form a […] solution. The solution was filtrated through a sterilized […] filter. […]
# [2] = test system: Bacillus subtilis NBRC 3134^T; assay: Antibacterial activity test in changing pH, paper disk assay; conditions: 1000 γ in methanol, 50 μL on paper disk, 37° C., 18 hours
# Procedure: Into a 50-mL Falcon tube, 20 mg of HK-1 was weighed out using an electric balance, and therein 20 mL of methanol (1000 γ) was added followed by gentle stirring. Each 3.3 mL was aliquoted to totally two 15-mL Falcon tubes. To one of them 20 μL of 1 N sodium hydroxide was added followed by gentle stirring. The pH was tested with a pH test paper. Ten (10) μL of each sample was subjected to HPLC. The HPLC analysis conditions are as follows. The stability of a compound is regarded as one of the important information for evaluating a substance. This is because, even if the external environment changes, insofar as the compound itself is stable, it can be applied in various situations, and the information leads to acquisition of biological knowledges. Therefore, the stability of the activity was examined by measuring antibacterial activities with respect to G. stearothermophilus, and B. subtilis using the solution prepared in the above “1. Antibacterial spectrum test”. (1) In a 200-mL Erlenmeyer flask, 100 mL of a NB culture medium was prepared and sterilized in an autoclave (121° C., 20 min). (2) After cooling to 50° C. or lower, 100 μL of the B. subtilis spore suspension was added. […] The culture medium was taken out from the incubator, and the diameter of the inhibition ring was measured with calipers (Kanon hardened stainless 150 mm).
# Streptomyces sp. AGRN-7 = assay: Antibacterial spectrum test, paper disk assay; conditions: 50 μL of 1000 γ solution in methanol, ISP2 medium, 45° C., 2 days
# Procedure: (§3) The antibacterial activity of HK-1 was assayed using a paper disk against the following bacterial bodies.
# (§4) A piece of ice out of a glycerol stock of S. griseus stored at −80° C. was planarly inoculated on the YMPD agar culture medium with a toothpick. This was incubated at 28° C. for 5 days. After the incubation, a small amount of spore was scraped off with a swab, and planarly inoculated on the YMPD culture medium. A piece of paper disk was placed on a filter paper, onto which 50 μL of a HK-1 solution adjusted to 1000 γ with methanol was dropped and dried. Then the disk was placed on the agar culture medium coated with the bacterial body. After incubation at 28° C. for 4 days, the diameter of the inhibition ring was measured.
# An assay was performed in the same manner as in 3 above, except that the incubation conditions were changed to ISP2 culture medium, 45° C., and 2-day period.
# [3] = test system: Thermosporothrix narukonensis F4^T; assay: Antibacterial spectrum test, paper disk assay; conditions: 50 μL of 1000 γ solution in methanol, YS medium, 50° C., 2 days
# Procedure: as §3, §4
# (§5) Assays were performed in the same manner as in 3 above, except that the incubation conditions were changed to YS culture medium (see Example 1), 50° C., and 2-day period.
# [4] = test system: Thermosporothrix hazakensis SK20-1^T NBRC 105916^T; assay: Antibacterial spectrum test, paper disk assay; conditions: 50 μL of 1000 γ solution in methanol, YS medium, 50° C., 2 days
# Procedure: as §3, §4, §5
# [5] = test system: Bacillus subtilis NBRC 3134^T; assay: Measurement of minimum inhibitory concentration, dilution method with liquid culture medium; conditions: NBRC3134, LB liquid medium, 37° C., 135 rpm, 18 hours, visual observation and OD600
# Description: as §1, §2
# The preparation was performed in the same manner as in 1 above, only except that the temperature was changed to 37° C.
# Two (2) mg of HK-1 was weighed out into a 2 mL Eppendorf tube using an electric balance. […]
# Streptomyces sp. AGRN-9 = assay: Antibacterial spectrum test, paper disk assay; conditions: 50 μL of 1000 γ solution in methanol, BM medium, 45° C., 2 days
# Procedure: as §3, §4
# (§6) Assays were performed in the same manner as in 3 above, except that the incubation conditions were changed to BM culture medium, 45° C., and 2-day period.
# Streptomyces sp. AGRN-8 = assay: Antibacterial spectrum test, paper disk assay; conditions: 50 μL of 1000 γ solution in methanol, BM medium, 45° C., 2 days
# Procedure: as §3, §4, §6
smiles,measurement,setting,value
COc1cc(OOc2cc(OC)c3c(c2-c2c(O)c(Cl)c(C)c4c2C(O)c2c(Cl)c(O)cc(O)c2C4=O)C(OC2OC(C)C(O)C2O)c2c(Cl)c(OC)c(Cl)c(C)c2C3=O)c(-c2c(O)c(Cl)c(C)c3c2C(O)c2c(Cl)c(O)cc(O)c2C3=O)c2c1C(=O)c1c(C)c(Cl)c(OC)c(Cl)c1C2OC1OC(C)C(O)C1O (stereo not drawn) [HK-1],MIC,[1],0.78 µg/mL
same,inhibition ring diameter,[2]; solution with pH adjusted to 9,20.2 mm
same,inhibition ring diameter,[2]; solution with pH not adjusted,18.5 mm
same,inhibition ring diameter,Streptomyces sp. AGRN-7,22.0 mm
same,inhibition ring diameter,[3],10.0 mm
same,inhibition ring diameter,[4],10.0 mm
same,MIC,[5],0.78 µg/mL
same,inhibition ring diameter,Streptomyces sp. AGRN-9,19.0 mm
same,inhibition ring diameter,Streptomyces sp. AGRN-8,16.0 mm
